Test results reported in patent US20190365685A1, “EYE DROPS FOR TREATING DRY EYE” (LTT BIO-PHARMA CO., LTD., priority 2013, published 2019).

Assays:
HCE cells [1] = assay: MTT assay in hyperosmotic media with diclofenac, NaCl and/or PGE2 (Example 3); type: cell-based, Human; conditions: 150 mM NaCl, 24 hours
Experimental: HCE cells were incubated in hyperosmotic media containing diclofenac, 150 mM NaCl, and/or PGE2 for 24 hours. The number of viable cells was measured by MTT assay, and the absorbance data were expressed as relative values to that of the control (under isotonic conditions).
The same procedure as in Example 3 was followed, except that bromfenac was used in place of diclofenac.

[2] = tested on: Human corneal epithelial cells (HCE cells); assay: MTT assay of viable cells under hyperosmotic conditions (Example 1); type: cell-based; conditions: 150 mM NaCl, 280 mM glucose or 280 mM sorbitol, compared with other NSAIDs
Experimental: Human corneal epithelial cells (HCE cells) were incubated in hyperosmotic media containing diclofenac. The hyperosmotic conditions of each medium were created by 150 mM NaCl, 280 mM glucose, or 280 mM sorbitol. The number of viable cells was measured by MTT assay, and the absorbance was calculated relative to the control (under isotonic conditions). The values are represented as average±S.D. (n=3), with a single asterisk (*) indicating P<0.05 and a double asterisk (**) indicating P<0.01.
The same procedure as in Example 1 was followed, except that other nonsteroidal anti-inflammatory drugs (NSAIDs) were used in place of diclofenac.

NFAT5 = NFAT5 expression and nuclear translocation by immunoblotting (Example 4); type: cell-based, Human; conditions: HCE cells, 150 mM NaCl, six hours or one hour
Experimental: HCE cells were incubated in hyperosmotic media containing diclofenac and 150 mM NaCl for six hours (FIG. 4A and FIG. 4C) or for one hour (FIG. 4B). Each whole cell homogenate (FIG. 4A and FIG. 4B) or nuclear extract (FIG. 4B) was analyzed by immunoblotting using an anti-NFAT5, anti-actin, or anti-lamin B antibody. The intensity of the NFAT5 band was measured and expressed as relative values to that of the control (under isotonic conditions without diclofenac) (FIG. 4A and FIG. 4B). The relative bgt1 mRNA expression level was measured by real-time RT-PCR, and the values normalized by the actin expression level are expressed as relative values to that of the control (under isotonic conditions without diclofenac) (FIG. 4C). The values are represented as average±S.D. (n=3), with a single asterisk (*) indicating P<0.05 and a double asterisk (**) indicating P<0.01. The same procedure as in Example 4 was followed, except that bromfenac was used in place of diclofenac.

[3] = tested on: corneal surface disorders in the dry eye model; assay: Rat dry eye model, fluorescein score after four weeks of administration (Example 10); type: in vivo; conditions: lacrimal gland removed, ophthalmic solution 5 μl, 0.05% (1.55 mM), three times a day
Experimental: The lacrimal gland of a rat was removed to prepare a dry eye model. One week after the lacrimal gland removal, an ophthalmic solution (5 μl) containing diclofenac (0.05%, 1.55 mM; or 0.1%, 3.1 mM) was administered three times a day. After four weeks from the start of the administration, the tears were subjected to fluorescein staining, and the fluorescein score was calculated. The same procedure as in Example 10 was followed, except that a buffer was used (Vehicle) in place of diclofenac.

PGE2 = assay: Amount of PGE2 induced by arachidonic acid, measured by EIA (Example 3); type: cell-based, Human; conditions: HCE cells, 30 minutes pre-incubation, 10 μM arachidonic acid
Experimental: Separately, HCE cells were pre-incubated in media containing diclofenac for 30 minutes, and then incubated in media containing 10 μM arachidonic acid and diclofenac. The arachidonic acid was added to induce PGE2. The amount of PGE2 contained in each culture was measured by EIA. The values are represented as average±S.D. (n=3), with a single asterisk (*) indicating P<0.05 and a double asterisk (**) indicating P<0.01. The same procedure as in Example 3 was followed, except that bromfenac was used in place of diclofenac.

HCE cells [4] = assay: Cell proliferation by BrdU incorporation assay under hyperosmotic conditions (Example 2); type: cell-based, Human; conditions: 150 mM NaCl, 12 hours of incubation
Experimental: (§1) HCE cells were incubated in hyperosmotic media containing diclofenac and 150 mM NaCl. After six hours of incubation, the caspase-3-like activity was measured using a fluorescent peptide substrate. Furthermore, after 12 hours of incubation, cell proliferation was assessed by BrdU incorporation assay, and the absorbance data were expressed as relative values to that of the control (under isotonic conditions). The values are represented as average±S.D. (n=3), with a single asterisk (*) indicating P<0.05 and a double asterisk (**) indicating P<0.01. The same procedure as in Example 2 was followed, except that bromfenac was used in place of diclofenac.

HCE cells [5] = assay: Caspase-3-like activity under hyperosmotic conditions (Example 2); type: cell-based, Human; conditions: 150 mM NaCl, six hours of incubation
Experimental: as §1

[6] = tested on: corneal surface disorders in the dry eye model; assay: Rat dry eye model by lacrimal gland removal (Example 5); type: in vivo; conditions: lacrimal gland removed, ophthalmic solution 5 μl, 0.1% (3.1 mM), three times a day, fluorescein score, TUNEL
Experimental: The lacrimal gland of a rat was removed to prepare a dry eye model. One to five weeks after the lacrimal gland removal, an ophthalmic solution (5 μl) containing diclofenac (0.1%, 3.1 mM) was administered three times a day. The amount of tears was measured by the cotton thread test. Five weeks after the lacrimal gland removal, ocular tissue sections were prepared and subjected to TUNEL assay and DAPI staining. The values are represented as average±S.E.M., with a single asterisk (*) indicating P<0.01 and n.s. meaning “not significant”. The same procedure as in Example 5 was followed, except that bromfenac was used in place of diclofenac.

| Compound | number of viable cells with PGE2 (MTT) (HCE cells [1]; hyperosmotic media) | reducing cytotoxicity under hyperosmotic conditions (number of viable cells, MTT) [2] | concentration required to reduce cytotoxicity caused by hyperosmolarity (HCE cells [1]; MTT) | expression and nuclear translocation of NFAT5 (NFAT5) | corneal surface disorders in the dry eye model (fluorescein score) [3] | concentration required to reduce PGE2 (PGE2) | cell proliferative effect (BrdU incorporation) (HCE cells [4]) | inhibiting apoptosis under hyperosmotic conditions (caspase-3-like activity) (HCE cells [5]) | effect of treating corneal surface disorders in the dry eye model [6] |
| --- | --- | --- | --- | --- | --- | --- | --- | --- | --- |
| CCCCC[C@H](O)/C=C/[C@H]1[C@H](O)CC(=O)[C@@H]1C/C=C\CCCC(=O)O [PGE2, prostaglandin E2] | did not change |  |  |  |  |  |  |  |  |
| O=C(O)Cc1ccccc1Nc1c(Cl)cccc1Cl [diclofenac] |  | highly effective in reducing cytotoxicity under hyperosmotic conditions | 100 nM | enhancing the expression and nuclear translocation of NFAT5 | treatable | 0.1 nM | exhibited a cell proliferative effect | effective in inhibiting apoptosis under hyperosmotic conditions | exhibited the effect of treating corneal surface disorders |
